The results in this text go back to US20230241242A1, “PREPARATION METHOD FOR ANTIBODY MEDICAMENT CONJUGATE” (priority 2020, published 2023).

In one assay the test system is SK-BR-3 tumor cells. The assay is described as follows: Inhibition of in vitro proliferation of tumor cells by compounds (CTG, 6 days). It is filed as cell-based. The settings on record: Homo sapiens, SK-BR-3, 144 h, read-out: IC50 in inhibiting in vitro proliferation of SK-BR-3 cells. The procedure:
(§1) This experiment was intended to detect the inhibitory activity of the pharmaceutical compounds of the present disclosure against the in vitro proliferation of U87MG cells (Cell Bank, Chinese Academy of Sciences, Catalog #TCHu138) and SK-BR-3 tumor cells (human breast cancer cells, ATCC, Cat #HTB-30). The cells were treated in vitro with a compound at different concentrations. After 6 days of culture, the proliferation of cells was tested using CTG (CellTiter-Glo® Luminescent Cell Viability Assay, Promega, Cat #G7573) reagents, and the in vitro activity of the compound was evaluated according to IC50 value.
(§2) The method for testing the inhibition of the in vitro proliferation of U87MG cells was described below as an example for the method for assaying for the inhibitory activity of the compounds of the present disclosure against the in vitro proliferation of tumor cells.
(§3) 1. Cell culture: U87MG and SK-BR-3 cells were cultured in EMEM medium (GE, Cat #SH30024.01) containing 10% FBS and McCoy's 5A medium (Gibco, Cat #16600-108) containing 10% FBS, respectively.
(§4) 2. Cell preparation: U87MG and SK-BR-3 cells growing at log phase were washed once with PBS (phosphate buffer, Shanghai BasalMedia Technologies Co., Ltd.) and then digested with 2-3 mL of trypsin (0.25% Trypsin-EDTA (1×), Gibico, Life Technologies) for 2-3 min After the cells were completely digested, 10-15 mL of cell culture media were added to elute the digested cells. The mixtures were centrifuged at 1000 rpm for 5 min, and the supernatants were discarded. Then the cells were resuspended in 10-20 mL of cell culture media to give single-cell suspensions.
(§5) 3. Cell plating: the U87MG and SK-BR-3 single-cell suspensions were each well mixed and adjusted with cell culture media to cell densities of 2.75×10^3 cells/mL and 8.25×10^3 cells/mL, respectively. The adjusted cell suspensions were each well mixed and added to 96-well cell culture plates at 180 μL/well. To each of the peripheral wells of the 96-well plates was added 200 μL of media only. The plate was incubated in an incubator for 24 h (37° C., 5% CO2).
(§6) 4. Compound preparation: the compound was dissolved in DMSO (dimethyl sulfoxide, Shanghai Titan Scientific Co., Ltd.) to prepare a stock solution at an initial concentration of 10 mM.
(§7) Small molecule compounds were prepared at an initial concentration of 500 nM as follows.
(§8) Different test samples at 100 μM (30 μL) were added to the first column of a 96-well U-bottom plate, and 20 μL of DMSO was added to each well of the second column through the eleventh column. […]
(§9) 7. Plate reading: the 96-well cell culture plate was taken out and tested in a microplate reader (BMG labtech, PHERAstar FS) for chemiluminescence.
(§10) Data were processed and analyzed using Microsoft Excel and Graphpad Prism 5.

In assay [1] the test system is human breast cancer cells trastuzumab drug-resistant strain (herceptin) JIMT-1 xenograft tumor. The assay is described as follows: Drug efficacy on JIMT-1 tumor-bearing mice. As to conditions: 10 mg/kg; two intraperitoneal injections; observation for 34 days. It is filed as in vivo, nu/nu nude mice. The procedure:
The tumor volumes and body weights were measured twice a week and the results were recorded.
Tumor volume (V) was calculated as: V=½×Llong×Lshort^2

The test system of another assay is U87MG cells. The assay is described as follows: Inhibition of in vitro proliferation of tumor cells by compounds (CTG, 6 days). It is filed as cell-based. The settings on record: Homo sapiens, U-87 MG, 144 h, read-out: IC50 in inhibiting in vitro proliferation of U87 cells. Here is the method:
as §1, §2, §3, §4, §5, §6, §7, §8, §9, §10

Turning to `CC[C@@]1(O)C(=O)OCc2c1cc1n(c2=O)Cc2c-1nc1cc(F)c(C)c3c1c2[C@@H](NC(=O)C1(O)CCCC1)CC3` [Compound 4, N-((1S,9S)-9-ethyl-5-fluoro-9-hydroxy-4-methyl-10,13-dioxo-2,3,9,10,13,15-hexahydro-1H,12H-benzo[de]pyrano[3′,4′:6,7]indolizino[1,2-b]quinolin-1-yl)-1-hydroxycyclopentane-1-carboxamide], the IC50 in the assay on SK-BR-3 tumor cells was found to be 1.9 nM.

T-DM1: in assay [1], the tumor inhibition rate entry was “no inhibition effect on tumors”.

As for `CC[C@@]1(O)C(=O)OCc2c1cc1n(c2=O)Cc2c-1nc1cc(F)c(C)c3c1c2[C@@H](NC(=O)C1(CO)CC1)CC3` [Compound 5, N-((1S,9S)-9-ethyl-5-fluoro-9-hydroxy-4-methyl-10,13-dioxo-2,3,9,10,13,15-hexahydro-1H,12H-benzo[de]pyrano[3′,4′:6,7]indolizino[1,2-b]quinolin-1-yl)-1-(hydroxymethyl)cyclopropane-1-carboxamide], in the assay with U87MG cells, the IC50 is 4.81 nM.

As for `CC[C@@]1(O)C(=O)OCc2c1cc1n(c2=O)Cc2c-1nc1cc(F)c(C)c3c1c2[C@@H](NC(=O)C1(O)CC1)CC3` [Compound 1, N-((1S,9S)-9-ethyl-5-fluoro-9-hydroxy-4-methyl-10,13-dioxo-2,3,9,10,13,15-hexahydro-1H,12H-benzo[de]pyrano[3′,4′:6,7]indolizino[1,2-b]quinolin-1-yl)-1-hydroxycyclopropane-1-carboxamide], the IC50 came to 0.12 nM in the assay with SK-BR-3 tumor cells and 0.23 nM in the assay on U87MG cells.
